Activity calls are given as the source filed them. The calls are words filed in the database; no cut-off is given here.
Experiments:
[1] = biological target: T1, Alpha-1B adrenergic receptor (Homo sapiens, UniProt P35368); assay: Binding affinity to human alpha1B-adrenoceptor
T1 sequence (P35368 whole entry): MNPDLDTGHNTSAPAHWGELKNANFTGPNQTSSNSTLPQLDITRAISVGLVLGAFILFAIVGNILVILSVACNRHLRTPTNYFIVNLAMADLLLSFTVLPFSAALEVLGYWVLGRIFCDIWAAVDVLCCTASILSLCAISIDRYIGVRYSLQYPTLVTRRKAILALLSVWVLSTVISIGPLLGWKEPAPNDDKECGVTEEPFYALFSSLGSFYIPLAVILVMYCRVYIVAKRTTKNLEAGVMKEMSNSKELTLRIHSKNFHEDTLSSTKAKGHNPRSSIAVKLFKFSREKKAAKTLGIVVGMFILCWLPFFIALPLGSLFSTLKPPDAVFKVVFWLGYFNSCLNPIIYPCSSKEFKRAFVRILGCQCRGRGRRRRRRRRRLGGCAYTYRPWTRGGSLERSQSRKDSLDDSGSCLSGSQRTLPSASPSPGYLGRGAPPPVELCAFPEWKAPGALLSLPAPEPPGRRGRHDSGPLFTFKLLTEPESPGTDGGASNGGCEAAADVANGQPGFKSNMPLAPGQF

[2] = biological target: T2, Alpha-1D adrenergic receptor (Homo sapiens, UniProt P25100); assay: Binding affinity to human alpha1D-adrenoceptor
T2 sequence (P25100 whole entry): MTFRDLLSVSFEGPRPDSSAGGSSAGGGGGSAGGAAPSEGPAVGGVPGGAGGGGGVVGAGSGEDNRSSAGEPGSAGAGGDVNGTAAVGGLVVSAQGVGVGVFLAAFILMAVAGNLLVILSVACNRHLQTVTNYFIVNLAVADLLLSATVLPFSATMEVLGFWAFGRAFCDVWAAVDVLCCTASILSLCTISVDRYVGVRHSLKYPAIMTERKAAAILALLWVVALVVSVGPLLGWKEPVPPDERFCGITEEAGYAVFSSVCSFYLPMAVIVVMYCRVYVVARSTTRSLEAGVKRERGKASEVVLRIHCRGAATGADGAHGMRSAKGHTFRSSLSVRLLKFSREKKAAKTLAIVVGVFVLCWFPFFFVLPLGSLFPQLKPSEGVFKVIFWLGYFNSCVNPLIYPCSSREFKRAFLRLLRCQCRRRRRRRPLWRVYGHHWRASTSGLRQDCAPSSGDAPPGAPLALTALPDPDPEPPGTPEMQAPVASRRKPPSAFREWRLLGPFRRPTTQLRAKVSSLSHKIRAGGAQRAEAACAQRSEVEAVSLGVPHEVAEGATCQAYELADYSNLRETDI

[3] = biological target: T3, Alpha-2A adrenergic receptor (Homo sapiens, UniProt P08913)
T3 sequence (P08913 whole entry): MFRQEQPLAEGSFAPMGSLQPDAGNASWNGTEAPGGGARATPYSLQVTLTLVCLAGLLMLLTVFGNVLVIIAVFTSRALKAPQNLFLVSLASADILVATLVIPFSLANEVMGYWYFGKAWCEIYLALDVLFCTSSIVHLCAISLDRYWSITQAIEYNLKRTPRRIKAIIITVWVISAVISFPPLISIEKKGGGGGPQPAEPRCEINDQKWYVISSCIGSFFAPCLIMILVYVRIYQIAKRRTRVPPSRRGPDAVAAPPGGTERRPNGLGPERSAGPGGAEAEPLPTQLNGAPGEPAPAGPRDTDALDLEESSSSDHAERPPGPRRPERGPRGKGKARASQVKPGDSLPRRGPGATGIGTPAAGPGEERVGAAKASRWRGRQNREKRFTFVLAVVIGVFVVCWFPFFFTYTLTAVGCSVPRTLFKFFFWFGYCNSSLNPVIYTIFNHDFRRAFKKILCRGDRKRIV
Description: Binding affinity to human alpha2A-adrenoceptor

[4] = biological target: T4, Alpha-2B adrenergic receptor (Homo sapiens, UniProt P18089)
T4 sequence (P18089 whole entry): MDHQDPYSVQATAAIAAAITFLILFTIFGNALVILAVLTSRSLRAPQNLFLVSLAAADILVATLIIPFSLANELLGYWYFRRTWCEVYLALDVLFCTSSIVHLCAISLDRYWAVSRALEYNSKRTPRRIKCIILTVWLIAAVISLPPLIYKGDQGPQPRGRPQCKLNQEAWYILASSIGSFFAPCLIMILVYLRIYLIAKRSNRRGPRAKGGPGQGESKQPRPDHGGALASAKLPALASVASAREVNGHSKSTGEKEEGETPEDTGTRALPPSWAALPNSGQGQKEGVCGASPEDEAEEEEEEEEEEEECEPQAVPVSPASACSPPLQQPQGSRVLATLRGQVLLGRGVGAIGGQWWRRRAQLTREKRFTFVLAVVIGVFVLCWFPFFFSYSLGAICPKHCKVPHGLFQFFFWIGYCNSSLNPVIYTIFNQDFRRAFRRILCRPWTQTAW
Description: Binding affinity to human alpha2B-adrenoceptor

[5] = biological target: T5, Alpha-1A adrenergic receptor (Homo sapiens, UniProt P35348)
T5 sequence (P35348 whole entry): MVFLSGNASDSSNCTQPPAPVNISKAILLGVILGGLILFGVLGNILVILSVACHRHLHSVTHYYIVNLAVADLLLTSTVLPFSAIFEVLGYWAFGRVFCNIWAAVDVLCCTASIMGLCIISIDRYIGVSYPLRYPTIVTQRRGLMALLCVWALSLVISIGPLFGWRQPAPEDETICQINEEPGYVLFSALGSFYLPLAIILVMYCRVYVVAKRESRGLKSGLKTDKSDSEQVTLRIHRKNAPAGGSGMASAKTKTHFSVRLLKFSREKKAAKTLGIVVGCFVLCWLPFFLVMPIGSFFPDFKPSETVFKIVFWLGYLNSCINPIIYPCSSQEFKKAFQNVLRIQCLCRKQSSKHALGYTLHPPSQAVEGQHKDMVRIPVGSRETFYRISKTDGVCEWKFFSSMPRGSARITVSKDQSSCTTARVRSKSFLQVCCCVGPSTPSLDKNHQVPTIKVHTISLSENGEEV
Description: Binding affinity to human alpha1A-adrenoceptor

[6] = biological target: T6, Alpha-2C adrenergic receptor (Homo sapiens, UniProt P18825)
T6 sequence (P18825 whole entry): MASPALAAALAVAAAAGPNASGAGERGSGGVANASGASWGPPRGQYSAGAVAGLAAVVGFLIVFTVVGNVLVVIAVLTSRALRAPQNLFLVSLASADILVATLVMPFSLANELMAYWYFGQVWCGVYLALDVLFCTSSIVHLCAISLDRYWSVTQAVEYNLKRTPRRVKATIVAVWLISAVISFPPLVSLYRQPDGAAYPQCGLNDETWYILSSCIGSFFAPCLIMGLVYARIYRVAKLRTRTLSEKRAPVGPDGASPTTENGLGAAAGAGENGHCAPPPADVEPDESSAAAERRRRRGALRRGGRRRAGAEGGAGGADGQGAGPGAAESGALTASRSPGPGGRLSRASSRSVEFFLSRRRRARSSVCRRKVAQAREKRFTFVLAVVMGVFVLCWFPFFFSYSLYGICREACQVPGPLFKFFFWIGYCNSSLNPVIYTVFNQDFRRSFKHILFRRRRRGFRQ
Description: Binding affinity to human alpha2C-adrenoceptor

[7] = biological target: T3, Alpha-2A adrenergic receptor; remark: listed apart in the source
Description: Agonist activity at alpha2A-adrenoceptor (unknown origin) expressed in CHO-alpha2-AR-PKAcatEGFP cells assessed as intracellular cAMP concentration by measuring PKA translocation after 15 mins incubation by PKA redistribution assay

[8] = biological target: T6, Alpha-2C adrenergic receptor; assay: Agonist activity at alpha2C-adrenoceptor (unknown origin) expressed in CHO-alpha2C-PKAcatEGFP cells assessed as increase in intracellular calcium level measured after 15 mins incubation by Micro automated microscopy; format: functional, cell-based
[9] = Selectivity index, ratio of EC50 for alpha2A-adrenoceptor (unknown origin) to EC50 for alpha2B-adrenoceptor (unknown origin)
[10] = biological target: T4, Alpha-2B adrenergic receptor; assay: Agonist activity at alpha2B-adrenoceptor (unknown origin) expressed in U2OS-EGFP-NFAT2-alpha2B-AR cells assessed as increase in intracellular calcium level measured after 15 mins incubation by Micro automated microscopy; format: functional, cell-based
[11] = Selectivity index, ratio of EC50 for alpha2A-adrenoceptor (unknown origin) to EC50 for alpha2C-adrenoceptor (unknown origin)
[12] = Metabolic stability in mouse liver microsomes assessed as elimination half life; format: ADME, Microsome
[13] = Metabolic stability in mouse liver microsomes assessed as intrinsic clearance; format: ADME, Microsome; details: read-out: CLH
[14] = Selectivity index, ratio of EC50 for alpha2A-adrenoceptor (unknown origin) to EC50 for alpha1A-adrenoceptor (unknown origin)
[15] = biological target: T5, Alpha-1A adrenergic receptor; assay: Agonist activity at alpha1A-adrenoceptor (unknown origin) expressed in HEK293T cells assessed as fluorescence intensity measured after 30 mins by IP-one homogeneous time-resolved fluorescence assay; format: functional, cell-based
[16] = system: Mus musculus; assay: Hypnotic activity in ip dosed C57BL/6 mouse assessed as increase in immobility time; format: functional, organism-based
[17] = system: HEK293T; assay: Agonist activity at alpha2A-adrenoceptor F427A mutant (unknown origin) expressed in HEK293T cells co-expressing pGloSensor-22F cAMP plasmid assessed as at 1 to 100 uM measured after 10 mins incubation by multiplate reader; format: cell-based; details: Homo sapiens, dose 1-100 µM
[18] = system: Mus musculus; assay: Hypnotic activity in ip dosed C57BL/6 mouse assessed as increase in loss of righting reflex (LORR)
[19] = system: HEK293T; assay: Agonist activity at alpha2A-adrenoceptor D128A mutant (unknown origin) expressed in HEK293T cells co-expressing pGloSensor-22F cAMP plasmid assessed as at 0.000001 to 100 uM measured after 10 mins incubation by multiplate reader; format: cell-based; details: Homo sapiens, dose lower 1e-06 µM, dose upper 100.0 µM
[20] = system: HEK293T; assay: Agonist activity at alpha2A-adrenoceptor Y409A mutant (unknown origin) expressed in HEK293T cells co-expressing pGloSensor-22F cAMP plasmid assessed as at 0.000001 to 100 uM measured after 10 mins incubation by multiplate reader; format: cell-based; details: Homo sapiens, dose lower 1e-06 µM, dose upper 100.0 µM

Q: Which results are given for `NC1=N[C@]2(CCc3cccc(Cl)c3C2)OC1`?
A: Ki [1]: 20 nM; Ki [2]: 25.1 nM; Ki [3]: 0.316 nM; Ki [4]: 0.251 nM; Ki [5]: 3.98 nM; Ki [6]: 0.316 nM

Q: With `Cc1ccc2c(c1Br)OCC=C2c1c[nH]cn1` as the compound, how does the EC50 [7] read?
A: The EC50 was 104 nM.

Q: With `Clc1cc(Cl)c2c(c1)C(c1c[nH]cn1)=CCO2` as the compound, how does the EC50 [7] read?
A: Its EC50 is 4630 nM.

Q: With `Brc1ccc2c(c1)C(c1c[nH]cn1)=CCO2` as the compound, how does the EC50 [7] read?
A: The EC50 was greater than 5000 nM.

Q: Which EC50 [8] does the source give for `Cc1cccc2c1OCC=C2c1c[nH]cn1` here?
A: Its EC50 is 49.6 nM.

Q: What about the EC50 [7] of the same compound?
A: The EC50 was 2.11 nM.

Q: What about the Selectivity Index [9] of the same compound?
A: Its Selectivity Index is 47.

Q: And the EC50 [10]?
A: The EC50 was 100 nM.

Q: And the Selectivity Index [11]?
A: Its Selectivity Index is 24.

Q: And the half-life [12]?
A: The half-life was 4.87 min.

Q: And the microsomal CLint [13]?
A: Its microsomal CLint is 284 µL/min/mg.

Q: And the Selectivity Index [14]?
A: Its Selectivity Index is 14.

Q: And the EC50 [15]?
A: The EC50 was 29.8 nM.

Q: With `Fc1ccc2c(c1)OCCC2c1cnc[nH]1` (stereo not drawn) as the compound, how does the EC50 [7] read?
A: Its EC50 is 80.9 nM.

Q: With `Clc1ccc2c(c1)C(c1cnc[nH]1)=CCO2` as the compound, how does the EC50 [7] read?
A: The EC50 was 899 nM.

Q: With `Fc1ccc2c(c1)OCC=C2c1cnc[nH]1` as the compound, how does the EC50 [7] read?
A: Its EC50 is greater than 5000 nM.

Q: Which EC50 [7] does the source give for `Brc1ccc2c(c1)OCCC2c1c[nH]cn1` (stereo not drawn) here?
A: The EC50 was 165 nM.

Q: For `Cc1ccc2c(c1)C(c1c[nH]cn1)=CCO2`, which EC50 [7] is on record?
A: The EC50 was 896 nM.

Q: For `N=C(N)NC(=O)Cc1c(Cl)cccc1Cl` [GUANFACINE], which Ki [1] is on record?
A: Its Ki is 135000 nM.

Q: And the Ki [2]?
A: Its Ki is 11700 nM.

Q: And the Ki [5]?
A: The Ki was 4680 nM.

Q: For `Cc1ccc2c(c1)C(c1c[nH]cn1)CCO2` (stereo not drawn), which EC50 [7] is on record?
A: Its EC50 is 2030 nM.

Q: For `Brc1ccc2c(c1)C(c1c[nH]cn1)CCO2` (stereo not drawn), which EC50 [7] is on record?
A: The EC50 was 446 nM.

Q: For `C[C@H](c1c[nH]cn1)c1cccc2ccccc12`, which Ki [3] is on record?
A: The Ki was 15.5 nM.

Q: What about the Ki [4] of the same compound?
A: Its Ki is 35.5 nM.

Q: And the Ki [5]?
A: The Ki was 447 nM.

Q: What about the Ki [6] of the same compound?
A: The Ki was 17.8 nM.

Q: With `Brc1cccc2c1OCC=C2c1c[nH]cn1` as the compound, how does the EC50 [8] read?
A: The EC50 was 37.2 nM.

Q: What about the EC50 [7] of the same compound?
A: Its EC50 is 0.78 nM.

Q: What about the Selectivity Index [9] of the same compound?
A: The Selectivity Index was 238.

Q: What about the EC50 [10] of the same compound?
A: The EC50 was 186 nM.

Q: And the Activity [16]?
A: Its Activity is “Dose-Dependent Effect”.

Q: What about the Selectivity Index [11] of the same compound?
A: The Selectivity Index was 48.

Q: What about the half-life [12] of the same compound?
A: The half-life was 5.56 min.

Q: What about the Activity [17] of the same compound?
A: The Activity was “inactive”.

Q: And the ED50 [18]?
A: Its ED50 is 1.54 mg/kg.

Q: What about the microsomal CLint [13] of the same compound?
A: Its microsomal CLint is 249 µL/min/mg.

Q: And the Selectivity Index [14]?
A: The Selectivity Index was 41.

Q: What about the Activity [19] of the same compound?
A: Its Activity is “inactive”.

Q: What about the Activity [20] of the same compound?
A: The Activity was “inactive”.

Q: What about the EC50 [15] of the same compound?
A: The EC50 was 32 nM.

Q: What does the source list for `Fc1cc(Br)c2c(c1)C(c1c[nH]cn1)=CCO2`?
A: EC50 [8]: 27.9 nM; EC50 [7]: 1.14 nM; Selectivity Index [9]: 73; EC50 [10]: 83.4 nM; Selectivity Index [11]: 24; Selectivity Index [14]: 42; EC50 [15]: 48.4 nM
